Experimental data published in patent publication US20180135134A1, “TARGETED SELECTION OF PATIENTS FOR TREATMENT WITH CORTISTATIN DERIVATIVES” (President and Fellows of Harvard College, priority 2015, published 2018).

How the values were obtained:
[1] = molecular target: T1, CDK8/19 (Homo sapiens, UniProt P49336); assay: Recombinant kinome-wide selectivity profiling (wildtype-profiler, ProQinase), 294 recombinant kinases; format: biochemical; details: 600 nM cortistatin A; FIG. 7A
T1 construct: purchased ProQinase GmbH
Source text: Recombinant kinome-wide selectivity profiling.

[2] = system: Jurkat; assay: Cellular proliferation assay (CellTiter-Glo); details: Homo sapiens
Procedure: (§1) All suspension cells were plated (96-well) in triplicate at 5,000-30,000 cells per well for testing (n=3). Viable cell number was estimated after 3, 7 and 10 days by counting viable cells from one vehicle well, generating a cell dilution series, transferring 20 ml per well in duplicate to a 384-well plate, and performing a linear regression to CellTiter-Glo (Promega) response (SPECTRAmax M3, Molecular Devices). Cells from all wells were also fourfold diluted in media and transferred in duplicate for CellTiter-Glo measurement. On days 3 and 7, an equal volume for all wells was split-back with fresh media and compound, such that the resulting cell density for the vehicle well matched the initial seeding density. For days 7 and 10, estimated cell number represents the split-adjusted theoretical cell number. […] For growth assays with inhibitors, n=3 for each concentration with two independent experiments.

[3] = system: GRANTA 519; assay: Cellular proliferation assay (CellTiter-Glo); details: Homo sapiens
Procedure: (§2) All suspension cells were plated (96-well) in triplicate at 5,000-30,000 cells per well for testing (n=3). Viable cell number was estimated after 3, 7 and 10 days by counting viable cells from one vehicle well, generating a cell dilution series, transferring 20 ml per well in duplicate to a 384-well plate, and performing a linear regression to CellTiter-Glo (Promega) response (SPECTRAmax M3, Molecular Devices). Cells from all wells were also fourfold diluted in media and transferred in duplicate for CellTiter-Glo measurement. On days 3 and 7, an equal volume for all wells was split-back with fresh media and compound, such that the resulting cell density for the vehicle well matched the initial seeding density. For days 7 and 10, estimated cell number represents the split-adjusted theoretical cell number. HCT116 were plated (96-well) in triplicate at 250 cells per well. Cells were incubated in the presence of vehicle, 1 μM paclitaxel, or compound. On day 7, CellTiter-Blue (Promega) response was measured and values were normalized to vehicle (100% growth) and paclitaxel (0% growth). For growth assays with inhibitors, n=3 for each concentration with two independent experiments.

[4] = system: SET-2; assay: Cellular proliferation assay (CellTiter-Glo); details: for GI50: Homo sapiens
Procedure: as §1

[5] = system: RUNX1 target genes including CEBPA, IRF8 and NFE2; assay: Gene expression in CA-sensitive cell lines SET-2, MOLM-14 and MV4;11; format: cell-based, human; details: SET-2, MOLM-14 and MV4;11 cell lines
Procedure: Leukemia cells were plated (12-well) in triplicate at 500,000-800,000 cells per ml and incubated in the presence of vehicle (0.1% DMSO) or CA (25 nM 3 h for K562, MOLM-14 and MV4;11; 10 nM 24 h for MOLM-14; 25 nM 4 h for SET-2, n=3 for each cell line). Cells were then washed twice with cold PBS, and snap frozen. RNA was isolated (RNeasy Plus Microkit, Qiagen or TRIzol, Life Technologies), processed, and, for K562, MOLM-14 and MV4;11, hybridized to the Human U133 Plus 2.0 microarray (Affymetrix). Microarrays were processed with Bioconductor packages affyQCReport for quality control and affy for background correction, summarization, and normalization using rma. […] SET-2 and HCT 116 gene expression was measured by RNA-seq. […] Reads were aligned in two passes, first with rnaStar (v.2.3.0e) then with BWA (v.0.7.5a) for remaining unmapped reads, both using default parameters. Mapped reads were merged and counted using HTSeq (v.0.5.3p3) with -s yes -m intersection-strict. […] Samples were run in a single lane on an Illumina HiSEQ 2000 sequencer with a single read flow cell using 1×50-bp reads and a 6-cycle index read. Reads were mapped to the hgl9 reference genome using Tophat2 v.2.0.6 with custom settings including the setting of—library-type fr—firstrand to appropriately account for the stranded nature of the protocol. […]

[6] = system: MM1.S; assay: Cellular proliferation assay (CellTiter-Glo); details: Homo sapiens
Procedure: as §2

[7] = system: SET-2; assay: Synergy assay with ruxolitinib (Chou-Talalay), SET-2; format: cell-based, human; details: combination of cortistatin A with JAK1/2 inhibitor ruxolitinib, FIG. 5
Procedure: SET-2 and UKE-1 cells were co-treated with constant ratios of ruxolitinib to CA, 1 to 1 or 10 to 1, in a 96-well growth assay format with a range of 2-fold dose dilutions of compounds. SET-2 and UKE-1 cells were also treated with ruxolitinib alone or CA alone in a 2-fold dilution series. The Chou-Talalay combination index values at 50% growth inhibition (Fa=0.5) were determined using CalcuSyn software (see Chou, T. C. Cancer Res. 2010 Jan. 15; 70(2):440-6) (FIG. 5).

[8] = system: ALL-SIL; assay: Cellular proliferation assay (CellTiter-Glo); details: Homo sapiens
Procedure: as §1

[9] = system: ARH-77; assay: Cellular proliferation assay (CellTiter-Glo); details: Homo sapiens
Procedure: as §1

[10] = system: SK.BR-3; assay: Soft agar growth assay (Alamar Blue); details: Breast cancer, HER2 overexpression, 100 nM cortistatin A
Procedure: (§3) For the 62 cell lines 96 well suspension cell culture plates were prepared. 100 μL of the soft agar bottom layer (0.6% final concentration in complete medium) was poured and left to solidify. 50 μL of the soft agar top layer (0.4% final concentration) containing the corresponding cells and cell number were then added on top, solidified and incubated at 37° C., 10% CO2. After the soft agar had solidified, the test items were added at indicated final concentrations into the inner wells of the plate. Subsequently, the assay was incubated in cell culture incubators for 8 to 14 days. Finally, the assay was developed using Alamar Blue and upon 1-5 h of incubation at 37° C. fluorescence intensity was determined (excitation: 560 nm; emission: 590 nm). As low control, cells were treated with 1E-05M Staurosporine (6fold values). As high control, cells were treated with 0.1% DMSO (solvent control, 6 fold values).
(§4) Raw data were converted into percent soft agar growth relative to high controls (solvent 0.1% DMSO) and low controls (1E-05M Staurosporine), which were set to 100% and 0%, respectively.

[11] = system: megakaryocytic cell lines; assay: Cellular proliferation assay, megakaryocytic cell lines; details: Homo sapiens
Procedure: as §1

[12] = system: T47D; assay: Soft agar growth assay (Alamar Blue); details: Breast cancer, ER-alpha positive, 100 nM cortistatin A
Procedure: as §3, §4

[13] = system: MOLM-16; assay: Cellular proliferation assay (CellTiter-Glo); details: Homo sapiens
Procedure: as §1

[14] = system: A498; assay: Soft agar growth assay (Alamar Blue); details: clear cell renal cell carcinoma, Loss of function VHL mutation (VHL negative), 100 nM cortistatin A
Procedure: as §3, §4

[15] = system: OCI-LY1; assay: Cellular proliferation assay (CellTiter-Glo); details: Homo sapiens
Procedure: as §1

[16] = system: RUNX1; assay: RUNX1 recruitment to genomic loci; format: cell-based, human; details: FIG. 11
[17] = molecular target: CDK19 W105M (Homo sapiens, UniProt Q9BWU1, W105M); details: expression of CDK19 W105M; FIG. 9
Procedure: 5′-Flag-tagged CDK8 and CDK19 were cloned from pBabe.puro.CDK8.flag (Addgene 19758) and F-CDK8L (Addgene 24762) into pLVX-EF1alpha-IRES-mCherry and pLVX-EF1alpha-IRES-ZsGreen (Clontech) and transformed into E. coli (One Shot Stbl3, Invitrogen). Point mutations were introduced by whole-plasmid PCR (QuikChange II XL Site-Directed Mutagenesis Kit, Agilent). pLVX lentiviral vectors were co-transfected with psPASx and pMD2.G (Addgene) in 293T cells. After 48 h, viral supernatants were collected and passed through a 0.45 m filter (Millipore). For transductions, 24-well plates were coated with 500 μl of 20 μg ml RetroNectin (Clontech) at 4° C. overnight, blocked with 2% BSA for 30 min, washed with PBS, and 300-500 μl of viral supernatant was added. The plates were centrifuged (2,000 g, 1.5 h) and then set in an incubator. After 2 h, viral supernatant was removed and 500 μl per well of 200,000 cells per ml was added. After 1-3 days, the cells were expanded and isolated by FACS.

[18] = system: RL95-2; assay: Soft agar growth assay (Alamar Blue); details: ER-alpha positive, 100 nM cortistatin A
Procedure: as §3, §4

[19] = system: SKNO-1; assay: Cellular proliferation assay (CellTiter-Glo); details: Homo sapiens
Procedure: as §1

Chain of CDK19 W105M (Q9BWU1 whole entry W105M): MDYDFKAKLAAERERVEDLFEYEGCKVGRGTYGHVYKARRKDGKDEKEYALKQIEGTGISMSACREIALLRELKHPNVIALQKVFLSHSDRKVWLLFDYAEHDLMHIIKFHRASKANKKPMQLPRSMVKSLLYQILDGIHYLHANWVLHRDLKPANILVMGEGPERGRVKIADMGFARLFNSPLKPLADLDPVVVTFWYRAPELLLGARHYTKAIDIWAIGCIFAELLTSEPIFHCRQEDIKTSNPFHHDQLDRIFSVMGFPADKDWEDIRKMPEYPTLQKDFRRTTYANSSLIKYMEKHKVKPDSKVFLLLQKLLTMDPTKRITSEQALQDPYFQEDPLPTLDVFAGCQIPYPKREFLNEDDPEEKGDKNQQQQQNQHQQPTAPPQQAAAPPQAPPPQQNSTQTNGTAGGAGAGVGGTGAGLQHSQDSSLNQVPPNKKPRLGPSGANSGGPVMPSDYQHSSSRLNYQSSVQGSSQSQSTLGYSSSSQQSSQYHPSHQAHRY
Chain of CDK19 W105M (P24863 whole entry partner): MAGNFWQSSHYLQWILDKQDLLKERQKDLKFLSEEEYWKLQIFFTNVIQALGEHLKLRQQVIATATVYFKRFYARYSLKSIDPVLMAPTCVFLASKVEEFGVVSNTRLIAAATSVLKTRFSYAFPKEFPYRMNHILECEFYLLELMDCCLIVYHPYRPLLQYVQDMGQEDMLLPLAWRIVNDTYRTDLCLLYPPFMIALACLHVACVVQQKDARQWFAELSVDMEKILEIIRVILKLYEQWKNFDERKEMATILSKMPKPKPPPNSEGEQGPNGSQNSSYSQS
T1 sequence (P49336 whole entry): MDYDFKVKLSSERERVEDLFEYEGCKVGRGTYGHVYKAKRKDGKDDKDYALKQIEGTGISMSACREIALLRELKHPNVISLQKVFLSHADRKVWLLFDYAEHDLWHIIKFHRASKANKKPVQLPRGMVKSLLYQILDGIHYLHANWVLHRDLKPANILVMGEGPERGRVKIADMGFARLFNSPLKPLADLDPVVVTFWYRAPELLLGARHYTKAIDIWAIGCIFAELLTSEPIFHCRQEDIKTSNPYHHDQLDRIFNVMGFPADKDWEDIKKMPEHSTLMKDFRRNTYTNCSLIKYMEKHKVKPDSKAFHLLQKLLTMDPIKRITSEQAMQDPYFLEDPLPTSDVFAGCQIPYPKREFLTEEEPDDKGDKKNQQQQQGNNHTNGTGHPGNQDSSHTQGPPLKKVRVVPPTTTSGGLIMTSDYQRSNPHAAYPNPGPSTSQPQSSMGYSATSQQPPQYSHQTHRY
T1 sequence (P24863 whole entry partner): as the sequence (P24863 whole entry partner) above

CN(C)[C@H]1C[C@@]23CC[C@@]4(O2)C(=CC[C@]2(C)[C@@H](c5ccc6ccncc6c5)CC[C@H]24)C=C3[C@@H](O)[C@@H]1O [Cortistatin A, cortistatin A]
kinase selectivity (kinase activity percent remaining, 294 recombinant kinases) [1]: selectively inhibits CDK8/19
GI50 [2]: 155 nM
GI50 [3]: 400 nM
GI50 ([4]; SET-2): 4 nM
GI50 ([4]; SET-2, 240 h): 4 nM
proliferation of SET-2 cells (theoretical cell number versus days of treatment) ([4]; dose-dependent, FIG. 4): inhibits the proliferation of SET-2 cells
expression of RUNX1 target genes [5]: upregulated RUNX1 target genes
GI50 [6]: 5 nM
combination index (synergy) for inhibition of proliferation [7]: synergizes
GI50 [8]: 2 nM
GI50 [9]: 16 nM
% growth rel. to vehicle [10]: 22%
GI50 [11]: < 10 nM
% growth rel. to vehicle [12]: 48%
GI50 ([13]; MOLM16): < 1 nM
GI50 ([13]; MOLM16, 240 h): ≤ 1 nM
% growth rel. to vehicle [14]: 51%
GI50 [15]: 37 nM
RUNX1 recruitment to loci [16]: RUNX1 was recruited to loci upregulated by CA treatment
growth of MOLM-14 cells expressing drug resistant allele [17]: able to proliferate in the presence of cortistatin A
% growth rel. to vehicle [18]: 16%
GI50 ([19]; SKNO-1): 1 nM
GI50 ([19]; SKNO-1, 240 h): 1 nM
